Assay results reported in US4029731A, “Aminophenyltetralin compounds” (Pfizer Inc., priority 1976, dated 1977).
Where a name gives a salt, the structure may show the parent alone.

Tests used:
Format in all cases: in vivo
[1] = test system: spontaneous motor activity in mice; assay: Spontaneous motor activity in mice (actophotometer activity counts)
Protocol: A total of seven mice was employed at each dose level tested (viz., at 0.32, 1.0, 3.2, 10 and 32 mg./kg., i.p., respectively) and these mice were separated one to an activity cage. After an initial one-half hour exposure period (for acclimation purposes), each animal in the cage was treated with a sample of the drug intraperitoneally and immediately thereafter returned to said cage, with activity counts every one-half hour being recorded from that point on.

[2] = test system: rats; assay: Antidepressant and psychomotor stimulant activity in rats, intraperitoneal; settings: i.p., 3.2 mg./kg. to 32 mg./kg.
From the text: (§1) As previously indicated, the 1-amino-4-phenyltetralin compounds of this invention (in the form of their trans-isomers) are all readily adapted to therapeutic use as psychotropic agents, particularly in view of their potent antidepressant and psychomotor stimulant properties. […] The other compounds of this invention also cause similar results. Furthermore, all the herein described trans-isomers of this invention can be administered as psychotropic agents by either the oral or parenteral routes of administration, for the present purposes at hand, without causing any significant untoward pharmacological side effects to occur in the subject to whom they are so administered. In general, these psychotropic compounds are normally administered in dosages ranging from about 0.3 mg., to about 10 mg. per kg. of body weight per day, although variations will necessarily occur depending upon the weight and conditions of the subject being treated and the particular route of administration chosen.

[3] = Toxic / untoward side effects on administration; settings: rats, i.p., 3.2 mg./kg. to 32 mg./kg.
From the text: as §1

[4] = test system: reserpine-induced hypothermia in the mouse; assay: Reversal of reserpine-induced hypothermia in the mouse; settings: 32 mg./kg. i.p., 2 hours after dosing; reserpine 2 mg./kg. s.c. 18 hours before; saline control 25.1° ± 3.2° C.
Protocol: The 1-amino-4-phenyltetraline final products of Examples III-IX were tested for antidepressant activity by measuring their ability to reverse reserpine-induced hypothermia in the mouse according to the procedure described by B.M. Askew in Life Science, Vol. 2, p. 725 (1963). In this test, all the animals were individually housed in plastic chambers with a cardboard bottom. The mice were injected with reserpine subcutaneously at 2 mg./kg. and retained at an ambient temperature of 20° C. for a period of 18 hours. At this point, their rectal temperatures were initially ascertained and immediately thereafter they were divided into groups of 5-20 animals for testing purposes. Each group then received either saline as a control or the compound to be tested at a dose level of 32 mg./kg., administered intraperitoneally, and the resulting rectal temperatures were measured two hours later. In the table below, the entries are reported as mean rectal temperatures for each compound at the 2-hour mark, together with the number of animals tested in each particular group.

[5] = test system: non-discriminated (Sidman) avoidance behavior rats; assay: Non-discriminated (Sidman) avoidance behavior in rats; settings: 5 mg./kg. and 10 mg./kg. i.p.
From the text: Eight (8) mature male rats were trained in Lehigh Valley automatic multiple-operant conditioning chambers to avoid a 2.0 mA electric shock that would last for 0.75 second, or terminate sooner if the rat lever became activated during the shock. In these tests, lever presses postponed the onset of shock for an initial period of 30 seconds, while only 10 seconds elapsed between shocks if no intervening response was elicited. The rats were run for a 40-minute control period before receiving the drug and then for approximately 2.5 hours after each treatment.

[6] = test system: motor activity in mice; avoidance behavior in rats; assay: Psychomotor stimulant activity (motor activity in mice; Sidman avoidance in rats); settings: as the hydrochloride salt
From the text: On the other hand, the activity of the compounds of the present invention, as psychomotor stimulants, is based on a variety of tests, including (1) a study of their motor activity in mice and (2) a measurement of their ability to influence the loss of avoidance behavior in rats trained on a non-discriminated (Sidman) avoidance schedule.

SMILES: CN[C@@H]1CC[C@@H](c2ccccc2)c2ccccc21 [Trans-d-isomer of Example III, trans-d-N-methyl-4-phenyl-1,2,3,4-tetrahydro-1-naphthylamine as the hydrochloride]
- duration of effect compared with d-amphetamine sulfate ([1]; 10 mg./kg. i.p. vs d-amphetamine sulfate at 3.2 mg./kg.): even more prolonged in its effect than did that of d-amphetamine sulfate
- effect on activity counts compared with d-amphetamine sulfate ([1]; 10 mg/kg. i.p. vs d-amphetamine sulfate at 3.2 mg./kg.): more pronounced than that of d-amphetamine sulfate
- effect on activity counts compared with methylphenidate ([1]; 10 mg/kg. i.p. vs methylphenidate at 10 mg./kg.): surpassing even that of methylphenidate
- activity counts ([1]; 10 mg/kg.(i.p.), 30-60 minutes after treatment): markedly elevated the activity counts
- antidepressant and psychomotor stimulant activity [2]: marked antidepressant and psychomotor stimulant activity
- signs of toxic side effects [3]: without showing any substantial signs of toxic side effects
- Mean Rectal Temperature, Temp. (° C.) ±S.D. [4]: 34.1 ± 0.7 °C
- duration of drug effect after administration [5]: approximately one and a half
- start of drug effect [5]: ≤ 20 min
- increase of response rates over normal pre-drug control levels ([5]; four out of eight rats): 2-6 times
- response rates ([5]; four out of eight rats): moderate to marked increase in response rates
- increase of response rates over pre-drug control levels ([5]; two other rats): about 1.5 times
- duration of motor stimulant activity [6]: long duration of motor stimulant activity
- onset of action [6]: rapid onset of action
- potency as psychomotor stimulant compared with methylphenidate [6]: comparable in potency to methylphenidate
